Measured values taken from ChEMBL document CHEMBL4229379, “Synthesis and structure-activity relationship of novel bisindole amidines active against MDR Gram-positive and Gram-negative bacteria” (Eur J Med Chem, 2018).
Values after ≈ are worked out from the molar mass of the structure shown.

Legend:
[1] = tested on: Enterococcus faecalis; experiment: Antibacterial activity against vancomycin-resistant Enterococcus faecalis ATCC 51299 after 18 hrs by CLSI broth microdilution method; format: functional; settings: ATCC 51299, 18 h
[2] = tested on: Providencia rettgeri; experiment: Antibacterial activity against Providencia rettgeri ATCC 31052 after 18 hrs by CLSI broth microdilution method; format: functional; settings: ATCC 31052, 18 h
[3] = tested on: Escherichia coli; experiment: Antibacterial activity against extended-spectrum beta-lactamase deficient Escherichia coli ATCC 25922 after 18 hrs by CLSI broth microdilution method; format: functional; settings: ATCC 25922, 18 h
[4] = tested on: Klebsiella pneumoniae; experiment: Antibacterial activity against extended-spectrum beta-lactamase deficient Klebsiella pneumoniae 7 after 18 hrs by CLSI broth microdilution method; format: functional; settings: Klebsiella pneumoniae, 7, 18 h
[5] = tested on: Stenotrophomonas maltophilia; experiment: Antibacterial activity against Stenotrophomonas maltophilia ATCC 13636 after 18 hrs by CLSI broth microdilution method; format: functional; settings: ATCC 13636, 18 h
[6] = tested on: Enterococcus faecium; experiment: Antibacterial activity against vancomycin-resistant Enterococcus faecium 12-1 after 18 hrs by CLSI broth microdilution method; format: functional; settings: 12-1, 18 h
[7] = tested on: Serratia marcescens; experiment: Antibacterial activity against Serratia marcescens ATCC 21074 after 18 hrs by CLSI broth microdilution method; format: functional; settings: ATCC 21074, 18 h
[8] = tested on: Escherichia coli; experiment: Antibacterial activity against extended-spectrum beta-lactamase deficient Escherichia coli 12-14 after 18 hrs by CLSI broth microdilution method; format: functional; settings: 12-14, 18 h
[9] = tested on: Klebsiella aerogenes; experiment: Antibacterial activity against Enterobacter aerogenes ATCC 13048 after 18 hrs by CLSI broth microdilution method; format: functional; settings: ATCC 13048, 18 h
[10] = tested on: Klebsiella pneumoniae; experiment: Antibacterial activity against extended-spectrum beta-lactamase deficient Klebsiella pneumoniae 12-4 after 18 hrs by CLSI broth microdilution method; format: functional; settings: 12-4, 18 h
[11] = tested on: Klebsiella pneumoniae; experiment: Antibacterial activity against new delhi metallo-beta-lactamase-1 harboring Klebsiella pneumoniae ATCC BAA-2146 after 18 hrs by CLSI broth microdilution method; format: functional; settings: ATCC BAA-2146, 18 h
[12] = tested on: Escherichia coli; experiment: Antibacterial activity against extended-spectrum beta-lactamase harboring Escherichia coli 12-15 after 18 hrs by CLSI broth microdilution method; format: functional; settings: 12-15, 18 h
[13] = tested on: Enterobacter cloacae; experiment: Antibacterial activity against Enterobacter cloacae ATCC 43560 after 18 hrs by CLSI broth microdilution method; format: functional; settings: ATCC 43560, 18 h
[14] = tested on: Pseudomonas aeruginosa; experiment: Antibacterial activity against Pseudomonas aeruginosa ATCC 27853 after 18 hrs by CLSI broth microdilution method; format: functional; settings: ATCC 27853, 18 h
[15] = tested on: Acinetobacter calcoaceticus; experiment: Antibacterial activity against Acinetobacter calcoaceticus ATCC 19606 after 18 hrs by CLSI broth microdilution method; format: functional; settings: ATCC 19606, 18 h
[16] = tested on: Proteus mirabilis; experiment: Antibacterial activity against Proteus mirabilis 12-6 after 18 hrs by CLSI broth microdilution method; format: functional; settings: 12-6, 18 h
[17] = tested on: Staphylococcus aureus; experiment: Antibacterial activity against methicillin-resistant Staphylococcus aureus ATCC 33591 after 18 hrs by CLSI broth microdilution method; format: functional; settings: ATCC 33591, 18 h
[18] = tested on: Pseudomonas aeruginosa; experiment: Antibacterial activity against Pseudomonas aeruginosa 12-16 after 18 hrs by CLSI broth microdilution method; format: functional; settings: 12-16, 18 h
[19] = tested on: Klebsiella pneumoniae; experiment: Antibacterial activity against extended-spectrum beta-lactamase harboring Klebsiella pneumoniae ATCC 700603 after 18 hrs by CLSI broth microdilution method; format: functional; settings: Klebsiella pneumoniae, 700603, 18 h
[20] = tested on: Escherichia coli; experiment: Antibacterial activity against extended-spectrum beta-lactamase deficient Escherichia coli 1515 after 18 hrs by CLSI broth microdilution method; format: functional; settings: Escherichia coli, 1515, 18 h
[21] = tested on: Staphylococcus aureus; experiment: Antibacterial activity against methicillin-sensitive Staphylococcus aureus 12-28 after 18 hrs by CLSI broth microdilution method; format: functional; settings: 12-28, 18 h
[22] = tested on: Staphylococcus aureus; experiment: Antibacterial activity against methicillin-resistant Staphylococcus aureus 12-33 after 18 hrs by CLSI broth microdilution method; format: functional; settings: 12-33, 18 h
[23] = tested on: Staphylococcus aureus; experiment: Antibacterial activity against methicillin-sensitive Staphylococcus aureus ATCC 29213 after 18 hrs by CLSI broth microdilution method; format: functional; settings: ATCC 29213, 18 h
[24] = tested on: Pseudomonas aeruginosa; experiment: Antibacterial activity against Pseudomonas aeruginosa PAO1 after 18 hrs by CLSI broth microdilution method; format: functional; settings: PAO1, 18 h
[25] = tested on: Enterococcus faecalis; experiment: Antibacterial activity against vancomycin-sensitive Enterococcus faecalis 12-5 after 18 hrs by CLSI broth microdilution method; format: functional; settings: 12-5, 18 h
[26] = tested on: Klebsiella pneumoniae; experiment: Antibacterial activity against extended-spectrum beta-lactamase harboring Klebsiella pneumoniae 12-8 after 18 hrs by CLSI broth microdilution method; format: functional; settings: 12-8, 18 h
[27] = tested on: Staphylococcus epidermidis; experiment: Antibacterial activity against methicillin-resistant Staphylococcus epidermidis 12-8 after 18 hrs by CLSI broth microdilution method; format: functional; settings: 12-8, 18 h
[28] = tested on: Enterococcus faecium; experiment: Antibacterial activity against vancomycin-sensitive Enterococcus faecium 12-3 after 18 hrs by CLSI broth microdilution method; format: functional; settings: 12-3, 18 h
[29] = tested on: Enterococcus faecium; experiment: Antibacterial activity against vancomycin-resistant Enterococcus faecium ATCC 700221 after 18 hrs by CLSI broth microdilution method; format: functional; settings: ATCC 700221, 18 h
[30] = tested on: Enterococcus faecalis; experiment: Antibacterial activity against vancomycin-resistant Enterococcus faecalis 09-9 after 18 hrs by CLSI broth microdilution method; format: functional; settings: 09-9, 18 h
[31] = tested on: Enterococcus faecalis; experiment: Antibacterial activity against vancomycin-sensitive Enterococcus faecalis ATCC 29212 after 18 hrs by CLSI broth microdilution method; format: functional; settings: ATCC 29212, 18 h
[32] = Cytotoxicity against HEK293T cells assessed as reduction in cell viability after 48 hrs by MTS assay; format: cell-based, HEK-293T; settings: human
[33] = tested on: Staphylococcus aureus; experiment: Antibacterial activity against methicillin-sensitive Staphylococcus aureus 15 after 18 hrs by CLSI broth microdilution method; format: functional; settings: Staphylococcus aureus, 15, 18 h
[34] = tested on: Staphylococcus epidermidis; experiment: Antibacterial activity against methicillin-sensitive Staphylococcus epidermidis 12-6 after 18 hrs by CLSI broth microdilution method; format: functional; settings: 12-6, 18 h
[35] = tested on: Staphylococcus epidermidis; experiment: Antibacterial activity against methicillin-sensitive Staphylococcus epidermidis ATCC 12228 after 18 hrs by CLSI broth microdilution method; format: functional; settings: ATCC 12228, 18 h
[36] = tested on: Citrobacter freundii; experiment: Antibacterial activity against Citrobacter freundii ATCC 43864 after 18 hrs by CLSI broth microdilution method; format: functional; settings: ATCC 43864, 18 h
[37] = tested on: Proteus vulgaris; experiment: Antibacterial activity against Proteus vulgaris ATCC 29905 after 18 hrs by CLSI broth microdilution method; format: functional; settings: ATCC 29905, 18 h

CN(C)C(=N)c1ccc2cc(-c3cnc(-c4cc5ccc(C(=N)N(C)C)cc5[nH]4)cn3)[nH]c2c1
MIC [1]: 8 µg/mL (≈ 17.8 µM) | MIC [2]: 16 µg/mL (≈ 35.5 µM) | MIC [3]: 4 µg/mL (≈ 8.88 µM) | MIC [4]: 16 µg/mL (≈ 35.5 µM) | MIC [5]: 32 µg/mL (≈ 71 µM) | MIC [6]: 2 µg/mL (≈ 4.44 µM) | MIC [7]: 128 µg/mL (≈ 284 µM) | MIC [8]: 4 µg/mL (≈ 8.88 µM) | MIC [9]: 16 µg/mL (≈ 35.5 µM) | MIC [10]: 16 µg/mL (≈ 35.5 µM) | MIC [11]: 16 µg/mL (≈ 35.5 µM) | MIC [12]: 16 µg/mL (≈ 35.5 µM) | MIC [13]: 8 µg/mL (≈ 17.8 µM) | MIC [14]: 128 µg/mL (≈ 284 µM) | MIC [15]: 32 µg/mL (≈ 71 µM) | MIC [16]: 64 µg/mL (≈ 142 µM) | MIC [17]: 1 µg/mL (≈ 2.22 µM) | MIC [18]: > 128 µg/mL | MIC [19]: 64 µg/mL (≈ 142 µM) | MIC [20]: 4 µg/mL (≈ 8.88 µM) | MIC [21]: 1 µg/mL (≈ 2.22 µM) | MIC [22]: 4 µg/mL (≈ 8.88 µM) | MIC [23]: 1 µg/mL (≈ 2.22 µM) | MIC [24]: > 128 µg/mL | MIC [25]: 8 µg/mL (≈ 17.8 µM) | MIC [26]: 16 µg/mL (≈ 35.5 µM) | MIC [27]: 1 µg/mL (≈ 2.22 µM) | MIC [28]: 4 µg/mL (≈ 8.88 µM) | MIC [29]: 4 µg/mL (≈ 8.88 µM) | MIC [30]: 4 µg/mL (≈ 8.88 µM) | MIC [31]: 4 µg/mL (≈ 8.88 µM) | CC50 at 48 h [32]: 13 µg/mL (≈ 28.8 µM) | MIC [33]: 1 µg/mL (≈ 2.22 µM) | MIC [34]: 4 µg/mL (≈ 8.88 µM) | MIC [35]: 0.5 µg/mL (≈ 1.11 µM) | MIC [36]: 8 µg/mL (≈ 17.8 µM) | MIC [37]: 16 µg/mL (≈ 35.5 µM)

N=C(c1ccc2cc(-c3ccc(-c4cc5ccc(C(=N)N6CC=CCC6)cc5[nH]4)cc3)[nH]c2c1)N1CC=CCC1
MIC [1]: 8 µg/mL (≈ 15.2 µM) | MIC [2]: 8 µg/mL (≈ 15.2 µM) | MIC [3]: 8 µg/mL (≈ 15.2 µM) | MIC [4]: 16 µg/mL (≈ 30.5 µM) | MIC [5]: 16 µg/mL (≈ 30.5 µM) | MIC [6]: 4 µg/mL (≈ 7.62 µM) | MIC [7]: 64 µg/mL (≈ 122 µM) | MIC [8]: 8 µg/mL (≈ 15.2 µM) | MIC [9]: 8 µg/mL (≈ 15.2 µM) | MIC [10]: 16 µg/mL (≈ 30.5 µM) | MIC [11]: 8 µg/mL (≈ 15.2 µM) | MIC [12]: 8 µg/mL (≈ 15.2 µM) | MIC [13]: 8 µg/mL (≈ 15.2 µM) | MIC [14]: > 128 µg/mL | MIC [15]: 16 µg/mL (≈ 30.5 µM) | MIC [16]: 32 µg/mL (≈ 61 µM) | MIC [17]: 1 µg/mL (≈ 1.91 µM) | MIC [18]: > 128 µg/mL | MIC [19]: 32 µg/mL (≈ 61 µM) | MIC [20]: 8 µg/mL (≈ 15.2 µM) | MIC [21]: 2 µg/mL (≈ 3.81 µM) | MIC [22]: 2 µg/mL (≈ 3.81 µM) | MIC [23]: 2 µg/mL (≈ 3.81 µM) | MIC [24]: > 128 µg/mL | MIC [25]: 8 µg/mL (≈ 15.2 µM) | MIC [26]: 16 µg/mL (≈ 30.5 µM) | MIC [27]: 2 µg/mL (≈ 3.81 µM) | MIC [28]: 4 µg/mL (≈ 7.62 µM) | MIC [29]: 4 µg/mL (≈ 7.62 µM) | MIC [30]: 4 µg/mL (≈ 7.62 µM) | MIC [31]: 4 µg/mL (≈ 7.62 µM) | CC50 at 48 h [32]: 13.3 µg/mL (≈ 25.4 µM) | MIC [33]: 2 µg/mL (≈ 3.81 µM) | MIC [34]: 4 µg/mL (≈ 7.62 µM) | MIC [35]: 1 µg/mL (≈ 1.91 µM) | MIC [36]: 8 µg/mL (≈ 15.2 µM) | MIC [37]: 16 µg/mL (≈ 30.5 µM)

COCCNC(=N)c1ccc2cc(-c3cncc(-c4cc5ccc(C(=N)NCCOC)cc5[nH]4)c3)[nH]c2c1
MIC [1]: > 64 µg/mL | MIC [2]: > 64 µg/mL | MIC [3]: > 64 µg/mL | MIC [4]: > 64 µg/mL | MIC [5]: > 64 µg/mL | MIC [6]: > 64 µg/mL | MIC [7]: > 64 µg/mL | MIC [8]: > 64 µg/mL | MIC [9]: > 64 µg/mL | MIC [10]: > 64 µg/mL | MIC [11]: > 64 µg/mL | MIC [12]: > 64 µg/mL | MIC [13]: > 64 µg/mL | MIC [14]: > 64 µg/mL | MIC [15]: > 64 µg/mL | MIC [16]: > 64 µg/mL | MIC [17]: > 64 µg/mL | MIC [18]: > 64 µg/mL | MIC [19]: > 64 µg/mL | MIC [20]: > 64 µg/mL | MIC [21]: > 64 µg/mL | MIC [22]: > 64 µg/mL | MIC [23]: > 64 µg/mL | MIC [24]: > 64 µg/mL | MIC [25]: > 64 µg/mL | MIC [26]: > 64 µg/mL | MIC [27]: > 64 µg/mL | MIC [28]: > 64 µg/mL | MIC [29]: > 64 µg/mL | MIC [30]: > 64 µg/mL | MIC [31]: > 64 µg/mL | CC50 at 48 h [32]: 28 µg/mL (≈ 54.9 µM) | MIC [33]: > 64 µg/mL | MIC [34]: 64 µg/mL (≈ 126 µM) | MIC [35]: 64 µg/mL (≈ 126 µM) | MIC [36]: > 64 µg/mL | MIC [37]: > 64 µg/mL
